Series [1] has as its system HCT-116. Description: MTT cytotoxicity assay, HCT-116. The series is classed as cell-based. Particulars: read-out: IC50 HCT-116, 72h.
Series [2] deals with MraY/MurX. Particulars: read-out: IC50 MraY/MurX; ref [9],[10]; cited from earlier work.
Series [3] deals with AglH (M. jannaschii) (Methanocaldococcus jannaschii, UniProt Q58513). Description: AglH assay. Particulars: read-out: IC50 AglH (M. jannaschii). The series is classed as biochemical.
The subject of series [4] is DLD-1. Description: MTT cytotoxicity assay, DLD-1. It counts as cell-based. Particulars: read-out: IC50 DLD-1, 72h.
Series [5] has as its system PD002. Description: MTT cytotoxicity assay, PD002. The series is classed as cell-based, human. Particulars: read-out: IC50 PD002; MTT assay, 72h.
Series [6] concerns DPAGT1. Particulars: read-out: IC50 DPAGT1; ref [9],[10]; cited from earlier work.
Series [7] concerns PANC-1. Description: MTT cytotoxicity assay, PANC-1. Particulars: read-out: IC50 PANC-1, 72h. The series is classed as cell-based, human.
The test system of series [8] is AsPC-1. Description: MTT cytotoxicity assay, AsPC-1. The series is classed as cell-based, human. Particulars: read-out: IC50 AsPC-1, 72h.
The subject of series [9] is SiHa. In words: MTT cytotoxicity assay, SiHa. It counts as cell-based, human. Particulars: read-out: IC50 SiHa, 72h.
In series [10] the test system is WecA. Particulars: read-out: IC50 WecA; ref [9],[10]; cited from earlier work.
Series [11] concerns KB. In words: MTT cytotoxicity assay, KB. The series is classed as cell-based, human. Particulars: read-out: IC50 KB, 72h.
Series [12] deals with DPAGT1 (Human) (Homo sapiens, UniProt Q9H3H5). In words: DPAGT1 assay. The series is classed as biochemical. Particulars: read-out: IC50 DPAGT1 (Human).
Chain of DPAGT1 (Human) (Q9H3H5 whole entry): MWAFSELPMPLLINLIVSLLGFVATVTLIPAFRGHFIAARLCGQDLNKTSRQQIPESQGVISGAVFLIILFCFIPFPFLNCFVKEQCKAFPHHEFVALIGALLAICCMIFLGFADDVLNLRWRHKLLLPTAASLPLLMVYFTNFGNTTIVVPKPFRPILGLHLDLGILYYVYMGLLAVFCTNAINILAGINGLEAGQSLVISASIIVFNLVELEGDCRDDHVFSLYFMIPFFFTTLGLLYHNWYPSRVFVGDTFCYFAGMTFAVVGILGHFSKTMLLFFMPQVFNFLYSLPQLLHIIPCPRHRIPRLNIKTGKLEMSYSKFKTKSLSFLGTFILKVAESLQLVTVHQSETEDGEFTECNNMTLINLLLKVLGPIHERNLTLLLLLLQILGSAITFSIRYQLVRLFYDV
Series [13] relates to Vero. In words: MTT cytotoxicity assay, Vero. Particulars: read-out: IC50 Vero, 72h, normal kidney cell. The series is classed as cell-based, Cercopithecus aethiops.
Series [14] relates to PD002. In words: Scratch. Particulars: PD002, 24h, 0.2 μM; untreated 63%. It counts as cell-based, human.
For series [15], the system named is HPNE. In words: MTT cytotoxicity assay, HPNE. It counts as cell-based. Particulars: read-out: IC50 HPNE; MTT assay, 72h; normal pancreatic ductal cell.
For series [16], the target named is MraY (Hydrogenivirga sp.) (Hydrogenivirga sp. 128-5-R1-1, UniProt Z9Y2G8N0L0). In words: MraY assay. It counts as biochemical. Particulars: read-out: IC50 MraY (Hydrogenivirga sp.).
Chain of MraY (Hydrogenivirga sp.) (Z9Y2G8N0L0 7-365 limits assumed): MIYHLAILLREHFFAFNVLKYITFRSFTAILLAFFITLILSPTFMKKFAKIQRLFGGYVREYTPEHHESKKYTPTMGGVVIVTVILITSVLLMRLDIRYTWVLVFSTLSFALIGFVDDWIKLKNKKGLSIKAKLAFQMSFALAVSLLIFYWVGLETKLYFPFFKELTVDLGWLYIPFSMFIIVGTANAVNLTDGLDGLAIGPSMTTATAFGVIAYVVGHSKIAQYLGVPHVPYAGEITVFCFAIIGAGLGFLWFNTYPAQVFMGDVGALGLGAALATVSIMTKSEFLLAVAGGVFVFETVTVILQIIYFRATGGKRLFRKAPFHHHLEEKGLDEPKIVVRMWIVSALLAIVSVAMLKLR
In series [17] the test system is Capan-1. In words: MTT cytotoxicity assay, Capan-1. The series is classed as cell-based, human. Particulars: read-out: IC50 Capan-1, 72h.
Series [18] concerns L1210. Description: MTT cytotoxicity assay, L1210. Particulars: read-out: IC50 L1210, 72h. It counts as cell-based, mouse.
The conditions of series [19]: cited from earlier work.
In series [20] the target is WecA (E. coli) (Escherichia coli, UniProt P0AC78). Description: WecA assay. Particulars: read-out: IC50 WecA (E. coli).
Chain of WecA (E. coli) (P0AC78 whole entry): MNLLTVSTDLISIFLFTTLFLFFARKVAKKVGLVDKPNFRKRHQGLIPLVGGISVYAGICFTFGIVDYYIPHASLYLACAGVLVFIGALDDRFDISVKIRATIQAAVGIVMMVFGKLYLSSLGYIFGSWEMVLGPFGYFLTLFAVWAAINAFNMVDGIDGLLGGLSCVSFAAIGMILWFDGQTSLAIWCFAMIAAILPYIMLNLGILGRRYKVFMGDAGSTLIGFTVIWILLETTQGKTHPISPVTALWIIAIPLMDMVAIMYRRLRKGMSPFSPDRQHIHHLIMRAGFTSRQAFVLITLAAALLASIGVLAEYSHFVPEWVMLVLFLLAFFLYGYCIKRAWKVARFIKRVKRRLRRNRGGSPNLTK
Series [21] deals with DPAGT1 gene. In words: RT-qPCR of DPAGT1 gene expression in PD002. It counts as cell-based, human. Particulars: 10 μM, 24h at 37 °C.

Where two headings read alike, the source gives them in different places.

Chain of AglH (M. jannaschii) (Q58513 whole entry): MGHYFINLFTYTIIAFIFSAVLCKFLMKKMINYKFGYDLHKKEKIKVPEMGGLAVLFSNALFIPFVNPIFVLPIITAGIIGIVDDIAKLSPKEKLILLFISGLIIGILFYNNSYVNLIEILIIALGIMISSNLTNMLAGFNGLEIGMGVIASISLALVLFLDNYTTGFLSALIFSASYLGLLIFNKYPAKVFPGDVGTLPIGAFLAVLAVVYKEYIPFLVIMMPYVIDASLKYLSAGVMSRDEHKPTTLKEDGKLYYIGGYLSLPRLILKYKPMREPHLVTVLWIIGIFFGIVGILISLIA

For Tunicamycin, the IC50 was 0.92 µM in series [1]; 2.9 µM in [2]; 13.2 µM in [3]; 1.25 µM in series [4]; 1.5 µM in series [5]; 1.5 µM in [6]. Besides, the IC50 in series [7] was 1.5 µM; in series [8], 0.45 µM; in [9] it was 0.92 µM; in series [10], 0.15 µM; in series [11], 2.5 µM; in series [12], 1.5 µM. Besides, the IC50 in series [13] is 0.78 µM; in series [15], 7.5 µM; in [16] it was 2.9 µM; in [17], 1.5 µM; in series [18], 1.7 µM; in series [20], 0.15 µM. Besides, in series [14], the wound-healing rate turned out to be 35%. Further, the LD50 in series [19] (mice, IP, ref [18],[19]) is given as 2.0 mg/kg; in series [19] (mouse, ref [10],[18]), 2.0 mg/kg. The LD100 in series [19] (mice, IP, ref [18],[19]) is on record as 3.5 mg/kg. The same substance showed a PD002 killed in series [21] of 100%.

(Values after PMC7554145 (Journal of medicinal chemistry, 2020).)
